Measured values published in US6479673B1, “Antiretroviral enantiomeric nucleotide analogs” (Institute of Organic Chemistry and Biochemistry of the …, priority 1992, dated 2002).
≈ marks a conversion by molar mass, not a printed value.

How the values were obtained:
C3H/3T3 cells = assay: Microscopic alteration of C3H/3T3 cell culture morphology; format: cell-based, murine; conditions: concentration that results in a microscopic alteration of C3H/3T3 cell culture morphology
HIV-2 = HIV-2 induced cytopathicity in MT-4 cells; format: cell-based, human immunodeficiency virus type 2; conditions: for EC50 HIV-2: MT-4 cells, concentration inhibiting HIV-induced cytopathicity by 50%
Description: (§1) The activity of the compounds against HIV-1 and HIV-2 induced cytopathicity was examined in human lymphocyte MT-4 cells. […] The infected cell cultures were then incubated at 37° C. for 5 days in a humidified CO2-controlled incubator. Then, the cytopathicity of the virus was examined by determination of MT-4 cell viability by trypan blue dye staining.

[1] = test system: Moloney murine sarcoma virus (MSV); assay: MSV-induced transformation of C3H/3T3 cells; format: cell-based; conditions: concentration inhibiting MSV-induced cell transformation by 50%
Description: The cells were seeded in 1-ml-wells of a 48-well microtiter plate and exposed to 80 PFU (plaque forming units) for 60-90 minutes. Then, the virus was removed and culture medium containing appropriate concentrations of the test compounds were added (1 ml per well). At day 6 post infection, MSV-induced transformation of the cell culture was examined microscopically.

retrovirus replication = assay: Anti-retrovirus activity in vitro (conclusions on HIV and MSV tests); format: cell-based
[2] = test system: Moloney murine sarcoma virus (MSV); assay: MSV infection in newborn NMRI mice, intraperitoneal administration; format: in vivo; parameters: protection of the animals against MSV-induced tumor development: unit not given here
Description: Two gram newborn NMRI mice were injected intramuscularly in the left hind leg with 50 μl of 250-fold diluted stock preparation of Moloney murine sarcoma virus. […] Another group of mice (20 animals) was administered RPMI-1640 medium as placebo. All compounds were solubilized in RPMI-1640 medium. The mice were observed daily for 20 days and the day of tumor initiation and the day of animal death was recorded for each animal. Statistical analyses were performed by calculating the standard deviation.

MT-4 cells = assay: MT-4 cell viability (cytotoxicity); format: cell-based, human; conditions: for CC50: concentration reducing MT-4 cell viability by 50%
Description: The activity of the compounds against HIV-1 and HIV-2 induced cytopathicity was examined in human lymphocyte MT-4 cells. […]. The infected cell cultures were then incubated at 37° C. for 5 days in a humidified CO2-controlled incubator. Then, the cytopathicity of the virus was examined by determination of MT-4 cell viability by trypan blue dye staining. The results are summarized in Table 1 in comparison with the data on the prototype compounds.

HIV-1 = HIV-1 induced cytopathicity in MT-4 cells; format: cell-based, human immunodeficiency virus type 1; conditions: for EC50 HIV-1: MT-4 cells, concentration inhibiting HIV-induced cytopathicity by 50%
Description: as §1

herpes viruses = conditions: racemic mixtures, prior art; cited from earlier work
[3] = test system: Moloney murine sarcoma virus (MSV); assay: MSV infection in three-week-old NMRI mice, oral administration; format: in vivo; conditions: twice a day, 100 mg/kg (total dose) daily for five days
Description: Three-week-old NMRI mice (about 10 grams body weight) were injected intramuscularly in the left hind leg with 50 μl of 20-fold diluted stock preparation of Moloney murine sarcoma virus. Starting 2-4 hours before virus infection,six animals received an orally administered test compound twice a day at 100 mg/kg(total dose) daily for five subsequent days. The control (placebo) group consisted of 14 animals. The experiment was evaluated as described in Example 35.

[4] = 10 mg/kg single dose i.p., NMRI mice
[5] = 20 mg/kg single dose i.p., NMRI mice
[6] = 50 mg/kg single dose i.p., NMRI mice
[7] = 2 mg/kg single dose i.p., NMRI mice
[8] = 5 mg/kg single dose i.p., NMRI mice

Structure (SMILES): C[C@@H](Cn1cnc2c(N)ncnc21)OCP(=O)(O)O [(S)-PMPA, 9-(S)-(2-Phosphonomethoxypropyl)adenine]
- MIC (C3H/3T3 cells): >100 µg/mL
- EC50 HIV-2 (HIV-2): 63 µg/mL (≈ 219 µM)
- EC50 MSV [1]: 120 µg/mL (≈ 418 µM)
- antiretroviral activity in vitro (in words) (retrovirus replication): devoid of marked antiretroviral activity
- Mean day of tumor initiation [2, 4]: 4.7 ± 0.95 days
- Mean day of tumor initiation [2, 5]: 4.5 ± 0.71 days
- Mean day of tumor initiation [2, 6]: 5.8 ± 0.63 days
- antiretroviral activity in vivo (in words) ([2]; dose of 50 mg/kg i.p.): no marked antiretroviral activity in vivo
- CC50 (MT-4 cells): >100 µg/mL
- EC50 HIV-1 (HIV-1): 78 µg/mL (≈ 272 µM)

Structure (SMILES): Nc1ncnc2c1ncn2CCOCP(=O)(O)O [PMEA]
- MIC (C3H/3T3 cells): >100 µg/mL
- percentage of MSV-infected mice still alive at day 20 post infection ([2]; 10 mg/kg single dose i.p.): (43%)
- percentage of MSV-infected mice without tumor at day 20 post infection ([2]; 10 mg/kg single dose i.p.): (24%)
- Mean day of animal death [2, 4]: 14.2 ± 2.5 days
- Mean day of tumor initiation [2, 4]: 9.8 ± 1.9 days
- percentage of MSV-infected mice still alive at day 20 post infection ([2]; 20 mg/kg single dose i.p.): (66%)
- percentage of MSV-infected mice without tumor at day 20 post infection ([2]; 20 mg/kg single dose i.p.): (44%)
- Mean day of animal death [2, 5]: 14.7 ± 1.8 days
- Mean day of tumor initiation [2, 5]: 10.6 ± 2.0 days
- percentage of MSV-infected mice still alive at day 20 post infection ([2]; 50 mg/kg single dose i.p.): (90%)
- percentage of MSV-infected mice without tumor at day 20 post infection ([2]; 50 mg/kg single dose i.p.): (90%)
- Mean day of animal death [2, 6]: 16.0 days
- Mean day of tumor initiation [2, 6]: 9.0 days
- CC50 (MT-4 cells): 67 µg/mL (≈ 245 µM)

Structure (SMILES): C[C@@H](Cn1cnc2c(N)nc(N)nc21)OCP(=O)(O)O [(S)-PMPDAP, 9-(S)-(2-Phosphonomethoxypropyl)-2.6-Diaminopurine]
- MIC (C3H/3T3 cells): >100 µg/mL
- EC50 HIV-2 (HIV-2): 4.0 µg/mL (≈ 13.2 µM)
- EC50 MSV [1]: 2.9 µg/mL (≈ 9.6 µM)
- CC50 (MT-4 cells): >100 µg/mL
- EC50 HIV-1 (HIV-1): 2.0 µg/mL (≈ 6.62 µM)

Structure (SMILES): CC(Cn1cnc2c(=O)[nH]c(N)nc21)OCP(=O)(O)O (centres unmarked) [PMPG]
- antiherpetic effect (in words) (herpes viruses): appeared due to its substantial cytotoxicity

Structure (SMILES): C[C@H](Cn1cnc2c(N)ncnc21)OCP(=O)(O)O [(R)-PMPA, 9-(R)-(2-Phosphonomethoxypropyl)adenine]
- MIC (C3H/3T3 cells): >100 µg/mL
- EC50 MSV [1]: 0.99 µg/mL (≈ 3.45 µM)
- concentration markedly inhibitory to retrovirus replication (retrovirus replication; in vitro): 1 to 2 µg/mL
- Mean day of tumor initiation [2, 7]: 5.3 ± 1.1 days
- percentage of MSV-infected mice still alive at day 20 post infection ([2]; 5 mg/kg single dose i.p.): (20%)
- percentage of MSV-infected mice without tumor at day 20 post infection ([2]; 5 mg/kg single dose i.p.): (10%)
- Mean day of tumor initiation [2, 8]: 7.11 ± 1.5 days
- percentage of MSV-infected mice still alive at day 20 post infection ([2]; 10 mg/kg single dose i.p.): (85%)
- percentage of MSV-infected mice without tumor at day 20 post infection ([2]; 10 mg/kg single dose i.p.): (75%)
- Mean day of tumor initiation [2, 4]: 12.9 ± 2.2 days
- percentage of MSV-infected mice still alive at day 20 post infection ([2]; 20 mg/kg single dose i.p.): (100%)
- percentage of MSV-infected mice without tumor at day 20 post infection ([2]; 20 mg/kg single dose i.p.): (80%)
- Mean day of animal death [2, 5]: >20 days
- Mean day of tumor initiation [2, 5]: 13.5 ± 3.5 days
- percentage of MSV-infected mice still alive at day 20 post infection ([2]; 50 mg/kg single dose i.p.): (100%)
- percentage of MSV-infected mice without tumor at day 20 post infection ([2]; 50 mg/kg single dose i.p.): (100%)
- Mean day of tumor initiation [2, 6]: >20 days
- protection against MSV-induced tumor development (in words) ([2]; single dose of 50 mg/kg i.p.): full protection
- CC50 (MT-4 cells): >100 µg/mL
- EC50 HIV-1 (HIV-1): 1.7 µg/mL (≈ 5.92 µM)

Structure (SMILES): Nc1nc(N)c2ncn(C[C@H](CF)OCP(=O)(O)O)c2n1 [(R)-FPMPDAP, reference compound]
- MIC (C3H/3T3 cells): >100 µg/mL
- EC50 HIV-2 (HIV-2): 1.5 µg/mL (≈ 4.68 µM)
- EC50 MSV [1]: 1.7 µg/mL (≈ 5.31 µM)
- Mean day of tumor initiation [2, 4]: 5.6 ± 1.0 days
- percentage of MSV-infected mice still alive at day 20 post infection ([2]; 25 mg/kg single dose i.p.): (15%)
- Mean day of tumor initiation ([2]; 25 mg/kg single dose i.p., NMRI mice): 7.7 ± 1.9 days
- percentage of MSV-infected mice still alive at day 20 post infection ([2]; 50 mg/kg single dose i.p.): (10%)
- Mean day of tumor initiation [2, 6]: 7.75 ± 1.3 days
- CC50 (MT-4 cells): >100 µg/mL
- EC50 HIV-1 (HIV-1): 1.4 µg/mL (≈ 4.37 µM)

Structure (SMILES): C[C@H](Cn1cnc2c(N)nc(N)nc21)OCP(=O)(O)O [(R)-PMPDAP, 9-(R)-(2-Phosphonomethoxypropyl)-2,6-Diaminopurine]
- MIC (C3H/3T3 cells): >100 µg/mL
- Mean day of tumor initiation [3]: 7.5 ± 1.0^*) day
- Number of mice developing tumor (%) [3]: 67%
- selectivity index (ratio cytotoxic dose/antivirally active dose) (HIV-2; HIV-2): > 2000
- EC50 HIV-2 (HIV-2): 0.06 µg/mL (≈ 0.199 µM)
- EC50 MSV [1]: 0.14 µg/mL (≈ 0.463 µM)
- EC50 retrovirus replication (retrovirus replication; in vitro): 0.01 to 0.1 µg/mL
- Mean day of tumor initiation [2, 7]: 11 days
- percentage of MSV-infected mice still alive at day 20 post infection ([2]; 5 mg/kg single dose i.p.): (90) %
- percentage of MSV-infected mice without tumor at day 20 post infection ([2]; 5 mg/kg single dose i.p.): (70) %
- Mean day of tumor initiation [2, 8]: 12.8 days
- percentage of MSV-infected mice still alive at day 20 post infection ([2]; 10 mg/kg single dose i.p.): (90) %
- percentage of MSV-infected mice without tumor at day 20 post infection ([2]; 10 mg/kg single dose i.p.): (90) %
- Mean day of tumor initiation [2, 4]: 11.5 days
- percentage of MSV-infected mice still alive at day 20 post infection ([2]; 20 mg/kg single dose i.p.): (95) %
- percentage of MSV-infected mice without tumor at day 20 post infection ([2]; 20 mg/kg single dose i.p.): (95) %
- Mean day of tumor initiation [2, 5]: 11 days
- anti-MSV activity in vivo relative to (R)-PMPA ([2]; i.p., NMRI mice): five fold superior over (R)-PMPA
- protection of the animals against MSV-induced tumor development ([2]; single dose of 10-20 mg/kg i.p.): 90-95
- concentration non-toxic to the cells (MT-4 cells): 100 µg/mL
- CC50 (MT-4 cells): >100 µg/mL
- selectivity index (ratio cytotoxic dose/antivirally active dose) (HIV-1; HIV-1): > 2000
- EC50 HIV-1 (HIV-1): 0.05 µg/mL (≈ 0.165 µM)
